Source: ChEMBL document CHEMBL4052755, “Phosphonodifluoropyruvate is a mechanism-based inhibitor of phosphonopyruvate decarboxylase from Bacteroides fragilis” (Bioorg Med Chem, 2017)
The source made the active and inactive calls. The rule behind the calls is not given here.

What was measured:
Pseudomonas putida = experiment: Inhibition of recombinant Pseudomonas putida C-terminal His-tagged phosphonatase
Saccharomyces cerevisiae = experiment: Inhibition of yeast alcohol dehydrogenase
[1] = Binding affinity to recombinant Bacteroides fragilis phosphonopyruvate decarboxylase using phosphonopyruvate as substrate
Bacteroides fragilis [2] = experiment: Irreversible inhibition of recombinant Bacteroides fragilis phosphonopyruvate decarboxylase at 10 to 50 uM using phosphonopyruvate as substrate
Bacteroides fragilis [3] = experiment: Irreversible inhibition of recombinant Bacteroides fragilis phosphonopyruvate decarboxylase at 10 uM using phosphonopyruvate as substrate after overnight dialysis
Bacteroides fragilis [4] = experiment: Inhibition of recombinant Bacteroides fragilis phosphonopyruvate decarboxylase at 35 uM incubated for 3 mins by UV-Vis spectrophotometric analysis
Bacteroides fragilis [5] = experiment: Inhibition of recombinant Bacteroides fragilis phosphonopyruvate decarboxylase at 35 uM incubated for 3 mins by CD spectropolarimetric analysis
Bacteroides fragilis [6] = experiment: Inhibition of recombinant Bacteroides fragilis phosphonopyruvate decarboxylase assessed as fluoride ion release up to 75 uM incubated for 30 mins by TISAB 2 solution based ion-selective electrode assay

## O=C(O)C(O)(O)C(F)(F)P(=O)(O)O
Pseudomonas putida
  inhibition: inactive
Saccharomyces cerevisiae
  inhibition: inactive
[1]
  Ki: 0.6 µM
Bacteroides fragilis [2]
  TDI: Active
Bacteroides fragilis [3]
  inhibition: Active
Bacteroides fragilis [4]
  inhibition: Active
Bacteroides fragilis [5]
  inhibition: Active
Bacteroides fragilis [6]
  inhibition: Active
